The experiment has as its system monocistronic NK5.1 HCV replicon in Huh7 cells. Description: HCV replicon assay, monocistronic replicon cell line. The format is cell-based, hepatitis C virus. The following applies: Hepatitis C virus, Huh-7; monocistronic NK5.1 HCV replicon in Huh7 cells; median value; read-out: Mono EC50 Median. The method in brief:
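Huh7 cells carrying the monocistronic NK5.1 replicon, seeded 24 h before dosing, were exposed to six-point half-log compound series (0.6% DMSO) for 3 days at 37 °C. Replicon RNA was quantified by TaqMan RT-PCR, normalised to GAPDH and compared with DMSO controls to derive EC50.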

46 compounds from patent US20050075375A1 (priority 2003, published 2005) can be followed below.

With `Nc1ccc(-c2noc(-c3cc(Br)ccc3O)n2)nc1` [Compound 254, 2-[3-(5-Amino-pyridin-2-yl)-[1,2,4]oxadiazol-5-yl]-4-bromo-phenol], the EC50 was 32 µM.

As to `Cc1ccc(O)c(-c2nc(-c3ccc(N)cn3)no2)c1` [Compound 255, 2-[3-(5-Amino-pyridin-2-yl)-[1,2,4]oxadiazol-5-yl]-4-methyl-phenol], the EC50 stood at 24 µM.

Take `Oc1ccc2ccccc2c1-c1nc(-c2ncccc2Br)no1` [Compound 256, 1-[3-(3-Bromo-pyridin-2-yl)-[1,2,4]oxadiazol-5-yl]-naphthalen-2-ol]: the EC50 was 2.1 µM.

Regarding `COc1cccc(-c2nc(-c3ncccc3Br)no2)c1O` [Compound 257, 2-[3-(3-Bromo-pyridin-2-yl)-[1,2,4]oxadiazol-5-yl]-6-methoxy-phenol], the EC50 is above 32 µM.

Consider `COc1ccc(O)c(-c2nc(-c3ncccc3Br)no2)c1` [Compound 258, 2-[3-(3-Bromo-pyridin-2-yl)-[1,2,4]oxadiazol-5-yl]-4-methoxy-phenol], for which the EC50 was above 10 µM.

`COc1ccc(-c2nc(-c3ncccc3Br)no2)c(O)c1` [Compound 259, 2-[3-(3-Bromo-pyridin-2-yl)-[1,2,4]oxadiazol-5-yl]-5-methoxy-phenol]: the EC50 was 2.5 µM.

With `COc1cccc(-c2nc(-c3ccc(NC(C)=O)cn3)no2)c1O` [Compound 260, N-{6-[5-(2-Hydroxy-3-methoxy-phenyl)-[1,2,4]oxadiazol-3-yl]-pyridin-3-yl}-acetamide], the EC50 stood at 44.3 µM.

Consider `COc1ccc(-c2nc(-c3ccc(NC(C)=O)cn3)no2)c(O)c1` [Compound 261, N-{6-[5-(2-Hydroxy-4-methoxy-phenyl)-[1,2,4]oxadiazol-3-yl]-pyridin-3-yl}-acetamide], for which the EC50 is 45.3 µM.

Regarding `COc1ccc(O)c(-c2nc(-c3ccc(NC(C)=O)cn3)no2)c1` [Compound 262, N-{6-[5-(2-Hydroxy-5-methoxy-phenyl)-[1,2,4]oxadiazol-3-yl]-pyridin-3-yl}-acetamide], the EC50 was 19.2 µM.

For the compound `CC(=O)Nc1ccc(-c2noc(-c3cc(Br)ccc3O)n2)nc1` [Compound 263, N-{6-[5-(5-Bromo-2-hydroxy-phenyl)-[1,2,4]oxadiazol-3-yl]-pyridin-3-yl}-acetamide], the EC50 was above 19 µM.

`CC(=O)Nc1ccc(-c2noc(-c3cc(C)ccc3O)n2)nc1` [Compound 264, N-{6-[5-(2-Hydroxy-5-methyl-phenyl)-[1,2,4]oxadiazol-3-yl]-pyridin-3-yl}-acetamide]: the EC50 is above 19 µM.

Turning to `COc1ccc(-c2nc(-c3ccc(C(F)(F)F)cn3)no2)c(O)c1OC` [Compound 265, 2,3-Dimethoxy-6-[3-(5-trifluoromethyl-pyridin-2-yl)-[1,2,4]oxadiazol-5-yl]-phenol], the EC50 amounted to 28.5 µM.

Consider `Cc1cccnc1-c1noc(-c2cc(O)ccc2OCc2ccccc2)n1` [Compound 267, 4-Benzyloxy-3-[3-(3-methyl-pyridin-2-yl)-[1,2,4]oxadiazol-5-yl]-phenol], for which the EC50 stood at 15.9 µM.

Consider `CCOc1cccc(-c2nc(-c3ncccc3C)no2)c1O` [Compound 268, 2-Ethoxy-6-[3-(3-methyl-pyridin-2-yl)-[1,2,4]oxadiazol-5-yl]-phenol], for which the EC50 was found to be 28.7 µM.

Take `CCOc1cccc(-c2nc(-c3ccc(C(F)(F)F)cn3)no2)c1O` [Compound 269, 2-Ethoxy-6-[3-(5-trifluoromethyl-pyridin-2-yl)-[1,2,4]oxadiazol-5-yl]-phenol]: the EC50 was found to be 35.9 µM.

Consider `Cc1cccnc1-c1noc(-c2cc(N)ccc2O)n1` [Compound 270, 4-Amino-2-[3-(3-methyl-pyridin-2-yl)-[1,2,4]oxadiazol-5-yl]-phenol], for which the EC50 came out at 27.7 µM.

Turning to `CCOc1ccc(O)c(-c2nc(-c3ncccc3C)no2)c1` [Compound 271, 4-Ethoxy-2-[3-(3-methyl-pyridin-2-yl)-[1,2,4]oxadiazol-5-yl]-phenol], the EC50 was found to be 0.61 µM.

On to `CCCOc1ccc(O)c(-c2nc(-c3ncccc3C)no2)c1` [Compound 272, 2-[3-(3-Methyl-pyridin-2-yl)-[1,2,4]oxadiazol-5-yl]-4-propoxy-phenol], for which the EC50 was above 32 µM.

As to `Cc1cccnc1-c1noc(-c2cc(OCCc3ccccc3)ccc2O)n1` [Compound 273, 2-[3-(3-Methyl-pyridin-2-yl)-[1,2,4]oxadiazol-5-yl]-4-phenethyloxy-phenol], the EC50 was above 19 µM.

As to `Cc1cccnc1-c1noc(-c2ccc(OCc3ccccc3)cc2O)n1` [Compound 274, 5-Benzyloxy-2-[3-(3-methyl-pyridin-2-yl)-[1,2,4]oxadiazol-5-yl]-phenol], the EC50 came out at 1.8 µM.

In the case of `CC(=O)Nc1ccc(O)c(-c2nc(-c3ncccc3C)no2)c1` [Compound 275, N-{4-Hydroxy-3-[3-(3-methyl-pyridin-2-yl)-[1,2,4]oxadiazol-5-yl]-phenyl}-acetamide], the EC50 is 18 µM.

For the compound `Cc1cccnc1-c1noc(-c2ccc(NC(=O)OC(C)(C)C)cc2O)n1` [Compound 276, {3-Hydroxy-4-[3-(3-methyl-pyridin-2-yl)-[1,2,4]oxadiazol-5-yl]-phenyl}-carbamic acid tert-butyl ester], the EC50 was 0.7 µM.

For `Cc1cccnc1-c1noc(-c2ccc(N)cc2O)n1` [Compound 277, 5-Amino-2-[3-(3-methyl-pyridin-2-yl)-[1,2,4]oxadiazol-5-yl]-phenol], the EC50 turned out to be 6 µM.

As to `Cc1cccnc1-c1noc(-c2cc(Cl)cc(Cl)c2O)n1` [Compound 278, 2,4-Dichloro-6-[3-(3-methyl-pyridin-2-yl)-[1,2,4]oxadiazol-5-yl]-phenol], the 50% effective concentration (EC50) came out at 3.8 µM.

For `Cc1cccnc1-c1noc(-c2cc(Cl)cc(Br)c2O)n1` [Compound 279, 2-Bromo-4-chloro-6-[3-(3-methyl-pyridin-2-yl)-[1,2,4]oxadiazol-5-yl]-phenol], the EC50 was 3.3 µM.

As for `Cc1cccnc1-c1noc(-c2cc(Br)cc(Br)c2O)n1` [Compound 280, 2,4-Dibromo-6-[3-(3-methyl-pyridin-2-yl)-[1,2,4]oxadiazol-5-yl]-phenol], the EC50 was 7.4 µM.

As for `Oc1c(Cl)cc(Cl)cc1-c1nc(-c2ccccn2)no1` [Compound 281], the EC50 worked out at 2.1 µM.

In the case of `COc1ccc(-c2nc(-c3ncccc3C)no2)c(O)c1OC` [Compound 282, 2,3-Dimethoxy-6-[3-(3-methyl-pyridin-2-yl)-[1,2,4]oxadiazol-5-yl]-phenol], the EC50 amounted to 1.3 µM.

On to `COc1ccc(O)c(-c2nc(-c3ccoc3)no2)c1` [Compound 283, 2-(3-Furan-3-yl-[1,2,4]oxadiazol-5-yl)-4-methoxy-phenol], for which the EC50 came out at 15 µM.

For the compound `Cc1ccc(O)c(-c2nc(-c3ccoc3)no2)c1` [Compound 284, 2-(3-Furan-3-yl-[1,2,4]oxadiazol-5-yl)-4-methyl-phenol], the EC50 came out at 17 µM.

Take `Oc1ccc2ccccc2c1-c1nc(-c2ccoc2)no1` [Compound 285]: the EC50 amounted to 11 µM.

As to `COc1ccc(-c2nc(-c3ccoc3)no2)c(O)c1` [Compound 286, 2-(3-Furan-3-yl-[1,2,4]oxadiazol-5-yl)-5-methoxy-phenol], the EC50 is 9.7 µM.

For `Oc1ccc(OC(F)(F)F)cc1-c1nc(-c2ccc(C(F)(F)F)cn2)no1` [Compound 287, 4-Trifluoromethoxy-2-[3-(5-trifluoromethyl-pyridin-2-yl)-[1,2,4]oxadiazol-5-yl]-phenol], the EC50 worked out at 1.7 µM.

Regarding `Cc1cccnc1-c1noc(-c2ccc(NCc3ccccc3)cc2O)n1` [Compound 288, 5-Benzylamino-2-[3-(3-methyl-pyridin-2-yl)-[1,2,4]oxadiazol-5-yl]-phenol], the EC50 stood at 0.8 µM.

For `Cc1cccnc1-c1noc(-c2ccc(NC(=O)c3ccccc3)cc2O)n1` [Compound 289], the EC50 was determined as 6.1 µM.

Regarding `Cc1cccnc1-c1noc(-c2cc(NC(=O)c3ccccc3)ccc2O)n1` [Compound 290, N-{4-Hydroxy-3-[3-(3-methyl-pyridin-2-yl)-[1,2,4]oxadiazol-5-yl]-phenyl}-benzamide], the EC50 was 2.8 µM.

As for `CC(=O)Nc1ccc(-c2nc(-c3ncccc3C)no2)c(O)c1` [Compound 291], the EC50 amounted to 6 µM.

Consider `Oc1ccc(Br)cc1-c1nc(-c2ncccc2C(F)(F)F)no1` [Compound 292, 4-Bromo-2-[3-(3-trifluoromethyl-pyridin-2-yl)-[1,2,4]oxadiazol-5-yl]-phenol], for which the EC50 is 1.5 µM.

Take `Cc1cccnc1-c1noc(-c2cccc(C)c2O)n1` [Compound 293, 2-Methyl-6-[3-(3-methyl-pyridin-2-yl)-[1,2,4]oxadiazol-5-yl]-phenol]: the EC50 amounted to 1.7 µM.

Consider `CSc1ccc(O)c(-c2nc(-c3ncccc3C)no2)c1` [Compound 294, 2-[3-(3-Methyl-pyridin-2-yl)-[1,2,4]oxadiazol-5-yl]-4-methylsulfanyl-phenol], for which the EC50 worked out at 0.2 µM.

`Cc1ccc(-c2nc(-c3ncccc3C)no2)c(O)c1` [Compound 295]: the EC50 came out at 2.1 µM.

In the case of `Cc1cccnc1-c1noc(-c2cc(C3OCC(C)(C)CO3)ccc2O)n1` [Compound 297, 4-(5,5-Dimethyl-[1,3]dioxan-2-yl)-2-[3-(3-methyl-pyridin-2-yl)-[1,2,4]oxadiazol-5-yl]-phenol], the EC50 was found to be 0.43 µM.

Regarding `Cc1cccnc1-c1noc(-c2cccc(NC(=O)OC(C)(C)C)c2O)n1` [Compound 298], the EC50 turned out to be 0.62 µM.

`COc1ccc(O)c(-c2noc(-c3ccoc3)n2)c1` [Compound 299, 2-(5-Furan-3-yl-[1,2,4]oxadiazol-3-yl)-4-methoxy-phenol]: the EC50 is 21.7 µM.

Consider `Cc1cccnc1-c1noc(-c2cccc(C(C)C)c2O)n1` [Compound 300, 2-Isopropyl-6-[3-(3-methyl-pyridin-2-yl)-[1,2,4]oxadiazol-5-yl]-phenol], for which the EC50 turned out to be 1.5 µM.

As for `COc1ccc(O)c(-c2noc(-c3ncccc3C)n2)c1` [Compound 301, 4-Methoxy-2-[5-(3-methyl-pyridin-2-yl)-[1,2,4]oxadiazol-3-yl]-phenol], the EC50 is above 32 µM.
